A short description of series [1]: Human cadaver skin permeability assay, Franz diffusion cells (flux, Papp).
Experimental: Static, vertical glass Franz diffusion cells were used for the permeability assay.
The dosing solution with control compounds (atenolol and testosterone, 100 μM each) was prepared in PBS buffer at pH 7.4 immediately prior to the start of the permeability experiments. The skin was kept frozen at −80° C. until the time of the study. The skin was thawed at room temperature and cut to appropriate size (˜2×2 cm). The thickness of each piece was measured and they were grouped based on thickness to ensure that the average thickness was similar across groups. Tissue was mounted in the Franz cell diffusion chamber and clamped between the donor and receiver chambers. The exposed surface area of the Franz cell diffusion chamber was 1.77 cm^2. The receiver compartment was filled with 8 mL PBS at pH 7.4 with 1% Oleth 20 for all test groups, or PBS at pH 7.4 for the control group. The reservoir also contained a magnetic stir bar, stirring at 400 RPM to ensure homogeneity of the reservoir contents. […]
Each formulated test compound (35.4 μL by volume) was dispensed into the donor chamber using the reverse pipetting technique, after warming the cream in a water bath at 37° C. […] Each formulation was also analyzed to verify the concentration of the test compound. […]
Series [2] can be described thus: Accumulation in epidermis and dermis of human skin after permeability assay. Format: in vitro ADME. The text has this:
All chambers were covered to minimize evaporation.
The concentration of the test compounds is expressed as the amount (μg) normalized by the tissue weight of each layer (g).

A short description of series [3]: Solubility in common topical excipients and solvent mixtures. Format: physicochemical.
Series [4] in a line: Stress testing with pure excipients (adduct formation). Format: physicochemical. On the procedure: Stress testing with pure excipients was also conducted.
The nature of series [5]: Solubility in IPA/DMSO and IPA/water/DMSO solutions. The class given is physicochemical.

For `C[C@]12CC[C@H]3[C@@H](CCC4=CC(=O)CC[C@@]43C)[C@@H]1CC[C@@H]2O` [testosterone], the “ratio of testosterone to atenolol Papp” value in series [1] (control compounds, 100 μM each in PBS pH 7.4) is “greater than 2”.

For `Cc1c(C(=O)Nc2ccc(N3C[C@@H](C)O[C@@H](C)C3)nc2)cccc1-c1ccc(OC(F)(F)F)cc1` [LDE225], in series [2], the “accumulation in dermis, comparison” value is recorded as “significantly less” and the “accumulation in epidermis, comparison” value is recorded as “significantly less”. Moreover, in series [1] (human cadaver skin), the “flux, comparison between formulations” value is “tended to be lower than that of Formulation A2”.

As for `CN(C(=O)c1ccc(F)cc1C(F)(F)F)C1CCN(c2nnc(-c3ccnn3C)c3ccccc23)CC1` [4-fluoro-N-methyl-N-(1-(4-(1-methyl-1H-pyrazol-5-yl)phthalazin-1-yl)piperidin-4-yl)-2-(trifluoromethyl)benzamide], in series [3] (Table 2 (not given)), the “Solubility in cosolvent, aqueous and lipophilic mixtures” value is on record as “solubility is highest in ethanol/water mixtures”. Also, the Solubility was 27.65 mg/g in series [3] (solvent DMSO); 13.66 mg/g in series [3] (solvent EtOH); 2.51 mg/g in series [3] (solvent EtOH-Water (1:1) v/v); 18.76 mg/g in series [3] (solvent EtOH-Water (3:1) v/v); 18.73 mg/g in series [3] (solvent IPA-Water (3:1) v/v); 5.15 mg/g in series [3] (solvent Isopropyl alcohol). Moreover, the Solubility in series [3] (solvent NMP) was 107.02 mg/g. In addition, the adduct formation entry is recorded as “Adducts were observed” in series [4] (excipients containing unhindered hydroxyl groups (ethanol, benzyl alcohol, Transcutol)) and “no adduct was observed” in series [4] (isopropyl alcohol). The “solubility in IPA/DMSO solutions” value in series [5] (above 20% DMSO, increasing DMSO, absence of water) is reported as “increased”. Further, the “solubility in IPA/water/DMSO solutions” value in series [5] (as percentage of water increased (5%, 10%, 20% or 30% water)) is listed as “less solubility”.
